Assay results: ChEMBL document CHEMBL1201862, “PubChem BioAssay data set” (2004)
pIC50: −log10 of the molar value. Active and inactive are the calls of the source.

Tests used:
Mu-type opioid receptor = Mu-type opioid receptor (Homo sapiens, UniProt P35372); assay: HTS Image-Based Screen for Agonists of the MOR Receptor. [Related pubchem assays (depositor defined):AID1777, AID1785, AID1786, AID2133]; format: functional;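 note: imaging of beta-arrestin GFP recruitment into spots after receptor activation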
Mu-type opioid receptor, sequence (P35372 whole entry): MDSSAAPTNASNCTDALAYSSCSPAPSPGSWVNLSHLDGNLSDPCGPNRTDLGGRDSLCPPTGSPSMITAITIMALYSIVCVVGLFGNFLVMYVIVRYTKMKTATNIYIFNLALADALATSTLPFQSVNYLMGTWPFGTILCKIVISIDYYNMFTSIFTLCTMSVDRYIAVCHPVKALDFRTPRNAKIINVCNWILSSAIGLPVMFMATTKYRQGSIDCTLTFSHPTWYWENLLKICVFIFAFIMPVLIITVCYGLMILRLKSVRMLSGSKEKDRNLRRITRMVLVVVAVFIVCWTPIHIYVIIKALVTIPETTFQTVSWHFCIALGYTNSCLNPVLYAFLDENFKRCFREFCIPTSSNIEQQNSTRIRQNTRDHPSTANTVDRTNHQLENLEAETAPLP

[1] = molecular target: T1, Kappa-type opioid receptor (Homo sapiens, UniProt P41145); format: functional
T1 sequence (P41145 whole entry): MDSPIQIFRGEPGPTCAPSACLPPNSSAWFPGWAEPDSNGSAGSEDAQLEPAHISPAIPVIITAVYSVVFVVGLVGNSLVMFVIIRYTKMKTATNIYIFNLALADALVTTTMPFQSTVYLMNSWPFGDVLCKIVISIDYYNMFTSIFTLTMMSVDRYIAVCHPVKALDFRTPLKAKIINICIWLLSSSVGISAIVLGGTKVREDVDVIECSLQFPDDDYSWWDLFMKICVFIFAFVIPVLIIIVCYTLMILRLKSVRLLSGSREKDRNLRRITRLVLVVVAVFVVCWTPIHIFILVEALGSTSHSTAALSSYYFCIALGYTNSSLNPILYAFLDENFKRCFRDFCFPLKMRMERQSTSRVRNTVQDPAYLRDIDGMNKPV

[2] = molecular target: T2, Delta-type opioid receptor (Homo sapiens, UniProt P41143); assay: HTS Image-Based Screen for Antagonists of the DOR Receptor. [Related pubchem assays (depositor defined):AID1777, AID1785, AID1786, AID2133]; format: functional
T2 sequence (P41143 whole entry): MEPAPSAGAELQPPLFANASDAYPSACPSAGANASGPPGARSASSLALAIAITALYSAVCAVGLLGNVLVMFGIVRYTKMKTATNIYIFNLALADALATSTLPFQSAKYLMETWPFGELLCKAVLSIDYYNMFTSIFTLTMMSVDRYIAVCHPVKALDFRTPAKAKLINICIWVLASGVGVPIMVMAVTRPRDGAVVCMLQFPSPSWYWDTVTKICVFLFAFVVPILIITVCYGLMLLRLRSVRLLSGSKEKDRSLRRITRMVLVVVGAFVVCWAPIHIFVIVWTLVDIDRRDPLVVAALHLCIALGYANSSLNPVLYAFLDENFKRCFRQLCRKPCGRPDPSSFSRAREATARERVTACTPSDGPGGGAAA

Beta-galactosidase = Beta-galactosidase (Escherichia coli, UniProt Q8VNN2); format: functional
[3] = molecular target: T2, Delta-type opioid receptor; assay: HTS Image-Based Screen for Agonists of the DOR Receptor. [Related pubchem assays (depositor defined):AID1777, AID1786, AID2133]; format: functional
[4] = molecular target: T1, Kappa-type opioid receptor; format: functional; remark: listed apart in the source
Cannabinoid receptor 2 [5] = molecular target: T3, Cannabinoid receptor 2 (Homo sapiens, UniProt P34972); assay: SAR analysis of agonists of the Cannabinoid Receptor 2 using an Image-Based Assay - Set 2. [Related pubchem assays (depositor defined):AID1961, AID1965]; format: functional
T3 sequence (P34972 whole entry): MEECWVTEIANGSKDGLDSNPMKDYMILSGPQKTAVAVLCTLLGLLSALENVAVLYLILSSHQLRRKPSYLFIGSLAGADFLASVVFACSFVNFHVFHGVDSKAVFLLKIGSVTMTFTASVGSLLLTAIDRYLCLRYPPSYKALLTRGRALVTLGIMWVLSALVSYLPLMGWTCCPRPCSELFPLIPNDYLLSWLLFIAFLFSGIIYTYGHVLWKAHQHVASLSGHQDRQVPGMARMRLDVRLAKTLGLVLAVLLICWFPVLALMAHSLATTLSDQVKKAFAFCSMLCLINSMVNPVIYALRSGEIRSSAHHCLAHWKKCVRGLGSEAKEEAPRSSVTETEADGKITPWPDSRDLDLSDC

Cannabinoid receptor 2 [6] = molecular target: T3, Cannabinoid receptor 2; assay: SAR analysis of antagonists of the Cannabinoid Receptor 2 using an Image-Based Assay - Set 2. [Related pubchem assays (depositor defined):AID1961, AID1965]; format: functional
[7] = molecular target: G-protein coupled receptor 55 (Homo sapiens, UniProt Q9Y2T6); assay: SAR analysis of selective Agonists of GPR55 using an Image-Based Assay. [Related pubchem assays (depositor defined):AID1961, AID1965]; format: functional
Cannabinoid receptor 1 = Cannabinoid receptor 1 (Homo sapiens, UniProt P21554); assay: SAR analysis of antagonists of the Cannabinoid Receptor 1 using an Image-Based Assay. [Related pubchem assays (depositor defined):AID1961, AID1965]; format: functional
Cannabinoid receptor 1, sequence (P21554 whole entry): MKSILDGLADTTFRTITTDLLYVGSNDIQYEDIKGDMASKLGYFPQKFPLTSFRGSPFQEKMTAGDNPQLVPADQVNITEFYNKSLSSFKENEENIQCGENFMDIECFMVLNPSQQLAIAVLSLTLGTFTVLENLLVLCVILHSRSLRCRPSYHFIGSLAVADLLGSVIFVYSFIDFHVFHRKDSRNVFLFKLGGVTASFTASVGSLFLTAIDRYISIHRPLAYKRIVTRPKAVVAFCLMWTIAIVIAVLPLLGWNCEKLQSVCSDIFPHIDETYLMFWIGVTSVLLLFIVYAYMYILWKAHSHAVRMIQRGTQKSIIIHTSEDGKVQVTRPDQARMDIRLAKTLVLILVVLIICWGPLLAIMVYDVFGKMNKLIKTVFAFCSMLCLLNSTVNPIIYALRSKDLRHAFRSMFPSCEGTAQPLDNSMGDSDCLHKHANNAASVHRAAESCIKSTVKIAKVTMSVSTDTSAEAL

Aspartyl aminopeptidase = molecular target: T4, Aspartyl aminopeptidase (Plasmodium falciparum 3D7, UniProt Q8I2J3); assay: Counterscreen for inhibitors of M1 and M17 aminopeptidases: QFRET-based biochemical high throughput dose response assay for inhibitors of the Plasmodium falciparum M18 Aspartyl Aminopeptidase (PFM18AAP). [Related PubChem assays: 1619 (Screening assay (M17LAP inhibitors).), 1445 (Screening assay (M1AAP inhibitors).)]
T4 sequence (Q8I2J3 whole entry): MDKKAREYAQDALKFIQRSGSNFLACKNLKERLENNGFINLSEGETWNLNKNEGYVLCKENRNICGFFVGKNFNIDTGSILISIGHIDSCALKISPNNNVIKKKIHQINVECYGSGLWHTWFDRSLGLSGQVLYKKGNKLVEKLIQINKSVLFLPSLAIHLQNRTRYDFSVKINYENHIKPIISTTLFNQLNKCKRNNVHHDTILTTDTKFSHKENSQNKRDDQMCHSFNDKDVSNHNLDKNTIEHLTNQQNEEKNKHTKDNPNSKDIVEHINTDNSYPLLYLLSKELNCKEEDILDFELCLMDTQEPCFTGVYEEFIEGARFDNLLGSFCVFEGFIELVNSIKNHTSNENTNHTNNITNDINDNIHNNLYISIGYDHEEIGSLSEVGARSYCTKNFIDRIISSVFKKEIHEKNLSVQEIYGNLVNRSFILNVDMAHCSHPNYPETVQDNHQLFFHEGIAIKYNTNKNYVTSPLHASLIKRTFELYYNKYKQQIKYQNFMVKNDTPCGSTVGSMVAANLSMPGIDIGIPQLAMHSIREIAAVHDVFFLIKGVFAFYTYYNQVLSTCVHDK

[8] = molecular target: Intestinal-type alkaline phosphatase (Mus musculus, UniProt P24822); assay: PubChem AID 488785; format: functional
[9] = molecular target: T5, Alkaline phosphatase, tissue-nonspecific isozyme (Homo sapiens, UniProt P05186); assay: TNAP enzyme inhibition by screening hits, dose response, selectivity assay for mouse IAP inhibitor project, biochemical, human TNAP, uHTS hits (AID 488906); format: functional
T5 sequence (P05186 whole entry): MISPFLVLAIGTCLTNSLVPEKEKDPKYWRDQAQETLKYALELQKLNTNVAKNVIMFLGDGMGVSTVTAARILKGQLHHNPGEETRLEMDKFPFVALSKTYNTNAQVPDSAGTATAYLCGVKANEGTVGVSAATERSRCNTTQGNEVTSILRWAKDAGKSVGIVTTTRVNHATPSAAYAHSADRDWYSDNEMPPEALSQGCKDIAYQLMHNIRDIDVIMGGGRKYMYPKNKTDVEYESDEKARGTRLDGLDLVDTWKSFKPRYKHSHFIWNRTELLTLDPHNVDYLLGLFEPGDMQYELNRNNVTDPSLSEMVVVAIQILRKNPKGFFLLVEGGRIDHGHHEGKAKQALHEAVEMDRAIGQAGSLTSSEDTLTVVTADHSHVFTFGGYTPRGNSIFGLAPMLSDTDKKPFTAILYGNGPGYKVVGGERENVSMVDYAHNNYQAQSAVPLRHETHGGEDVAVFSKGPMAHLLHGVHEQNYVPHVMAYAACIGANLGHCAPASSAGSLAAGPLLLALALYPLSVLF

[10] = molecular target: Intestinal-type alkaline phosphatase (Homo sapiens, UniProt P09923); assay: inhibition of human intestinal alkaline phosphatase – biochemical, dose response (AID 488876); format: functional
Intestinal-type alkaline phosphatase (Homo sapiens, UniProt P09923), sequence (P09923 whole entry): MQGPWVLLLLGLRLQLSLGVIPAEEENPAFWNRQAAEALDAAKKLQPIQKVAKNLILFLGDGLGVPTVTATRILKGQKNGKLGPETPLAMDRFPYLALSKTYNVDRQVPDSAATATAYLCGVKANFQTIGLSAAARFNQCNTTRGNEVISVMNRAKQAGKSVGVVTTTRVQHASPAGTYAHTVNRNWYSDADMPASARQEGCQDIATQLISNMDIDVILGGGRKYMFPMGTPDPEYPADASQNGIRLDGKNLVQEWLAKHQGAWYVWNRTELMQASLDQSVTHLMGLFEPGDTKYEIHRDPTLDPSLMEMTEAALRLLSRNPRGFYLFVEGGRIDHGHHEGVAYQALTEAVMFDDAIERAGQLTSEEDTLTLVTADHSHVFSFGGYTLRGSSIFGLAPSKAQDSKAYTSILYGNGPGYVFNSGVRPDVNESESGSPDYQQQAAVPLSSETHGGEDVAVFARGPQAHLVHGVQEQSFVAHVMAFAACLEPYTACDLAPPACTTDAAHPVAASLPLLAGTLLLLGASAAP

Aminopeptidase N = molecular target: T6, Aminopeptidase N (Plasmodium falciparum FcB1/Columbia, UniProt O96935); assay: malaria alanyl aminopeptidase activity blockers – biochemical, fluorogenic H-Leu-NHMec substrate, 1536-well (AID 1445); design: species or system Plasmodium falciparum 3D7, 3D7
T6 sequence (O96935 whole entry): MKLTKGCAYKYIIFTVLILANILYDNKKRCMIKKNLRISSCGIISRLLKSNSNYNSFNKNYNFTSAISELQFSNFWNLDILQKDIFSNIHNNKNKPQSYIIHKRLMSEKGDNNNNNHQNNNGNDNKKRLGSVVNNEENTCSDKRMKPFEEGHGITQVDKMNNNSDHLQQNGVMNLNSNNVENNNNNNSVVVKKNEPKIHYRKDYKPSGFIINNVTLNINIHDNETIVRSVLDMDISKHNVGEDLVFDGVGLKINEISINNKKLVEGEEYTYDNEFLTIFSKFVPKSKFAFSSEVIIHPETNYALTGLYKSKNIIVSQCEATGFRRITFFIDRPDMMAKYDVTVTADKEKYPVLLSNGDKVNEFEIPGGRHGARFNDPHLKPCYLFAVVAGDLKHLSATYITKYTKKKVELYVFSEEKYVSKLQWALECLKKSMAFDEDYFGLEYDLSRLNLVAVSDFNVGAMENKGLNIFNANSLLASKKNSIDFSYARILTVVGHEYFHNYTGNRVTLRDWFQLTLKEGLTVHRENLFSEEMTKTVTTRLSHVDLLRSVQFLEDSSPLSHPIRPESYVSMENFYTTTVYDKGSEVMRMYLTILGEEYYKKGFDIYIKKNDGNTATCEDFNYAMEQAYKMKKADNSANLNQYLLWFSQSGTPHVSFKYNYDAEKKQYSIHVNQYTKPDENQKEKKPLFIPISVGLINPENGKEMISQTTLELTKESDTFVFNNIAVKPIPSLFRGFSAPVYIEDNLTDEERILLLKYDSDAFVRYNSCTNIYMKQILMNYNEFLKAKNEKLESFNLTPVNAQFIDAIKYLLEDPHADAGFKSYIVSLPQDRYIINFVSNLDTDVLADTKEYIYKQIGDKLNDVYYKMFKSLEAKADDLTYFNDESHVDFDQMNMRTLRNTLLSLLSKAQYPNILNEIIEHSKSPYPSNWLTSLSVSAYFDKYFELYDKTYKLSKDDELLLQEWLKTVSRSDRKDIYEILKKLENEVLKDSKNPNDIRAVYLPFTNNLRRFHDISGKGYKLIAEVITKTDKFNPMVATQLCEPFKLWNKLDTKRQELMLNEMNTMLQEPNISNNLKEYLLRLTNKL

Procathepsin L = Procathepsin L (Homo sapiens, UniProt P07711); assay: CTSL1 protease inhibition – biochemical, QFRET, 1536-well, counter-screen for M1/M17 aminopeptidase inhibitor project, dose response (AID 2214)
[11] = molecular target: Voltage-dependent T-type calcium channel subunit alpha-1H (Homo sapiens, UniProt O95180); assay: inhibition of CACNA1H calcium flux – cell-based, SynthLib3 library, HEK293 Cav3.2, fluorescence (AID 493041); format: functional
Voltage-dependent T-type calcium channel subunit alpha-1H, sequence (O95180 whole entry): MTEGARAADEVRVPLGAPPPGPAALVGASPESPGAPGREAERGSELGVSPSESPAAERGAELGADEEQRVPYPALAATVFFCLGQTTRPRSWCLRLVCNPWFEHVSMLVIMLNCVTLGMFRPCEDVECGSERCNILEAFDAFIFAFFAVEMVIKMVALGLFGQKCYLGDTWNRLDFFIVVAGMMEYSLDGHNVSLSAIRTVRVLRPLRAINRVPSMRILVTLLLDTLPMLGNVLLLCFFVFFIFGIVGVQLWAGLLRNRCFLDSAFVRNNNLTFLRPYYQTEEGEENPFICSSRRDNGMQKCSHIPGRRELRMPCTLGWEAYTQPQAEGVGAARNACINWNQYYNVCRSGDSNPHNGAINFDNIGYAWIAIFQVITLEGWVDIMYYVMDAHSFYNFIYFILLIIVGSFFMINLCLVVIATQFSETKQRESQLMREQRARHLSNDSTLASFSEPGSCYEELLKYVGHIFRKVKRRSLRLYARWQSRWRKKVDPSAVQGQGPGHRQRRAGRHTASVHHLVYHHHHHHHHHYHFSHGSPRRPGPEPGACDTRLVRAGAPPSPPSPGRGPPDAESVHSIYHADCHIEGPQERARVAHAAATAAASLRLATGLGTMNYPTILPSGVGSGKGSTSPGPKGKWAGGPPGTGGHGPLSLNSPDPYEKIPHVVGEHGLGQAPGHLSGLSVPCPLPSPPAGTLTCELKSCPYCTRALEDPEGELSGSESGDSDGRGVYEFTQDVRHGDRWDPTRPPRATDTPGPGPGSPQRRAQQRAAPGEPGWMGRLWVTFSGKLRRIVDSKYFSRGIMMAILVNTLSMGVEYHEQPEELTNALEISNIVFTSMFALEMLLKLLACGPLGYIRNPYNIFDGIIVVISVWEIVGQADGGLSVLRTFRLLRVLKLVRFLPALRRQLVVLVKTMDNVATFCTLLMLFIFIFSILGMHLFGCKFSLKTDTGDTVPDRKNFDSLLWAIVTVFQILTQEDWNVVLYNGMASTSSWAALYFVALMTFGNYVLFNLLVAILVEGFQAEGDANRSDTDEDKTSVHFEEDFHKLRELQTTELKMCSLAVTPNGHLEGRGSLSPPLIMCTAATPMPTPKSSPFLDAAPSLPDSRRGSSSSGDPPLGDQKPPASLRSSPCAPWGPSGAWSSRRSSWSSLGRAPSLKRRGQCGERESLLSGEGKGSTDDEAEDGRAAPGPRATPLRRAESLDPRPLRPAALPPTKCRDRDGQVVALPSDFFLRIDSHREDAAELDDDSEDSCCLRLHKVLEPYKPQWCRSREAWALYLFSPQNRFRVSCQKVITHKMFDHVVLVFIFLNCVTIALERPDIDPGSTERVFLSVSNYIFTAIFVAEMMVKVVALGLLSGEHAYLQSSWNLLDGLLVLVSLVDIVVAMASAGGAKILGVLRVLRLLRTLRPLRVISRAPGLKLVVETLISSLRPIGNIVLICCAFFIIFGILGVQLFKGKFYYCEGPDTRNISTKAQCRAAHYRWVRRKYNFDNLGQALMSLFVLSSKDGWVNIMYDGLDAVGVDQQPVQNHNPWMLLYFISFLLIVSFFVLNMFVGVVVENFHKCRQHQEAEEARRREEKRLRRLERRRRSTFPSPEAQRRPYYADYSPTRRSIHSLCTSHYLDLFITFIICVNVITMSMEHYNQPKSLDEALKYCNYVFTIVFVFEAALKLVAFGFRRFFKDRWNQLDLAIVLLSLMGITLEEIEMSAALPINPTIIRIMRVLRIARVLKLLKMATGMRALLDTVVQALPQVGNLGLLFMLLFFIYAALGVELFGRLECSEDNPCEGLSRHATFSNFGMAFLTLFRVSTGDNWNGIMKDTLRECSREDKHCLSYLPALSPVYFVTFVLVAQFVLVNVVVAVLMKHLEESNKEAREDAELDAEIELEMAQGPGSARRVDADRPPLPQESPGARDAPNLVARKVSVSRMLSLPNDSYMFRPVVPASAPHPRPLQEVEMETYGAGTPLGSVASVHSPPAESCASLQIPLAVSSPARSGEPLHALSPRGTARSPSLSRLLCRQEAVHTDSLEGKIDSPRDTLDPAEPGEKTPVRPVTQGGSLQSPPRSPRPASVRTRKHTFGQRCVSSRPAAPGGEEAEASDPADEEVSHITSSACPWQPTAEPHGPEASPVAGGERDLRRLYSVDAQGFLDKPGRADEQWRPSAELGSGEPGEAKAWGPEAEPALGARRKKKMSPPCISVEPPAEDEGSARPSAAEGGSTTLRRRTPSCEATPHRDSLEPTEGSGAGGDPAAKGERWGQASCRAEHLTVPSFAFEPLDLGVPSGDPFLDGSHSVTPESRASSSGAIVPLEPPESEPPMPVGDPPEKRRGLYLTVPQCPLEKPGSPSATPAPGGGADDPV

Exodeoxyribonuclease V = Exodeoxyribonuclease V (Escherichia coli (strain K12), UniProt P04993+P07648+P08394); assay: RecBCD inhibition via phage-restricted bacterial growth – absorbance, V66 E. coli, mutant T4 phage, counter-screen for AddAB inhibitor project, dose response (AID 492957); format: functional, cell-based, Escherichia coli str. K-12 substr. MG1655
[12] = molecular target: T7, Microphthalmia-associated transcription factor (Homo sapiens, UniProt O75030); assay: reducers of TRPM1 reporter luminescence, concentration series – cell-based, SK-MEL-5, cherry-picked, set 3, MITF inhibitor project, dose response (AID 493073); format: functional;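 note: SK-MEL-5 melanoma cells with luciferase driven by the MITF target TRPM1 promoter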
T7 sequence (O75030 whole entry): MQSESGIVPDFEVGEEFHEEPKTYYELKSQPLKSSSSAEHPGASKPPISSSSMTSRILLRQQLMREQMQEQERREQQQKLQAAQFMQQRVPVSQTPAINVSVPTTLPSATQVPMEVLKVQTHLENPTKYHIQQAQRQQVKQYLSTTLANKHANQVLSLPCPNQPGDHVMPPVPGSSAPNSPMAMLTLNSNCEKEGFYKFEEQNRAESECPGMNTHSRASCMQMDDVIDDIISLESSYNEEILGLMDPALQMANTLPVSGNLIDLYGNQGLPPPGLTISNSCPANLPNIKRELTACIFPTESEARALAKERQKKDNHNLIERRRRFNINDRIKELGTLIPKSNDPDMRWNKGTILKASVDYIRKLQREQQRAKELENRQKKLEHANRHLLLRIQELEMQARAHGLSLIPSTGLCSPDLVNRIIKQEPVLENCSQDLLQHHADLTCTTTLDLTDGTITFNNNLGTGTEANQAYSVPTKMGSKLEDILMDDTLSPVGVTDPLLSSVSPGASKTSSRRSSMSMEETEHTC

Nonstructural protein 1 = Nonstructural protein 1 (Influenza A virus, UniProt Q194T2); format: functional, Influenza A virus (A/California/07/2009(H1N1))
[13] = Counterscreen for AddAB inhibitors: absorbance-based bacterial cell-based high throughput dose response assay for inhibitors of bacterial viability. [Related pubchem assays (depositor defined):AID435030, AID449728, AID449731, AID488942, AID488955, AID488956]; format: functional

CCOc1ccccc1C(=O)NC1CC2CCCC(C1)N2Cc1ccc(C)cc1 (stereo unspecified)
EC50 (Mu-type opioid receptor): > 32 µM (inactive)
IC50 [1]: 4.81 µM (active)
IC50 [2]: > 32 µM (inactive)
EC50 (Beta-galactosidase): > 31.5 µM (inactive)
EC50 [3]: > 32 µM (inactive)
pIC50 [4]: 4.66

CCCN(CCC)Cc1c(C(=O)NN=C/C(C)=C\c2ccco2)nnn1-c1nonc1N
EC50 (Cannabinoid receptor 2 [5]): > 32 µM (inactive)
IC50 (Cannabinoid receptor 2 [6]): > 32 µM (inactive)
EC50 [7]: 0.597 µM (active)
IC50 (Cannabinoid receptor 1): > 32 µM (inactive)

O=C1Nc2ccccc2/C1=C1/SC(=S)N(NC(=O)c2ccccc2)C1=O
IC50 (Aspartyl aminopeptidase): > 73.5 µM (not active)
IC50 [8]: 6.46 µM (active)
IC50 [9]: > 100 µM (inactive)
IC50 [10]: 3.09 µM (active)
IC50 (Aminopeptidase N): 11.2 µM (active)
IC50 (Procathepsin L): 38.3 µM (not active)

CC(C)CCN1CC2CCC(NC(=O)c3cc(Cl)cc(Cl)c3)C2C1 (stereo unspecified)
EC50 [11]: 1.8 µM (active)

O=C(O)c1cccc(NC(=S)N/N=C/c2ccccn2)c1
IC50 (Exodeoxyribonuclease V): > 119 µM (inactive)
AC50 [12]: 8.63 µM (active)
IC50 (Nonstructural protein 1): 4.06 µM (active)
IC50 [13]: > 119 µM (inactive)
